Like-named read-outs stand apart in the source and are kept apart here. Marks after values point to notes of the source that are not given here.
What was measured:
[1] = system: advanced malignancies; experiment: Antitumor activity, tumor response by RECIST v1.1; type: in vivo, human
Description: Tumor response was assessed by computed tomography scans or magnetic resonance imaging according to RECIST v1.1 [18] at baseline and thereafter every 6 weeks until patients discontinued from the study. The assessment included all patients who received ≥1 dose of study drug.

[2] = system: tumor xenograft models; conditions: cited from earlier work
[3] = system: PI3K/mTOR kinase activity; experiment: Pharmacodynamics: fasting glucose and C-peptide change from baseline; type: in vivo, human; conditions: baseline to 4 h post dose
Description: The primary objective of this study was to evaluate the tolerability and safety of LY3023414 up to the global recommended dose in Japanese patients with advanced malignancies. The secondary objectives were to evaluate PK and to document antitumor activity of LY3023414. The exploratory objective was to evaluate pharmacodynamic (PD) effects of LY3023414 on PI3K/mTOR kinase activity.
(§1) For PK assessment, blood samples were collected at pre dose and 0.5, 1, 2, 4, 8, and 12 h post dose on 2 occasions: (i) on Day 1 of Cycle 1 (single dose), and (ii) on Day 15 of Cycle 1 (multiple dose). For PD assessment, blood samples were collected at pre dose and 0.5, 1, 2, and 4 h post dose on 2 occasions: (i) on Day 1 of Cycle 1 (single dose), and (ii) on Day 15 of Cycle 1 (multiple dose).
Pharmacodynamic parameters (glucose and C-peptide) were analyzed for all patients. The mean percentage change from baseline against nominal time was provided for glucose and C-peptide.

[4] = system: CYP3A4; set-up: method as in PMID 29636360; conditions: drug-drug interaction analysis; cited from earlier work
[5] = system: PI3K/mTOR; set-up: method as in PMID 29636360; conditions: at doses ≥150 mg; cited from earlier work
[6] = Blood pharmacokinetics (dried blood spot LC-MS/MS, non-compartmental analysis); type: in vivo, human; conditions: for CL/F: based on AUC0-∞; for CL/F (CLss/F): Cycle 1 Day 15 (multiple dose, steady state); for Tmax / half-life / Vd/F / AUC(0-inf) / Cmax / AUC(0-t): human, oral; for Vd/F: read-out: Vz/F; for AUC(0-t): tlast 12 h (AUCτ), read-out: AUC0-tlast
Description: as §1
Blood concentrations of LY3023414 were assayed using a validated dried blood spot liquid chromatography-mass spectrometry/mass spectrometry method at a designated laboratory. The PK parameter estimates for LY3023414 were calculated by standard non-compartmental methods of analysis using Phoenix WinNonlin® 8.0 (Certara, L.P.; Princeton, NJ, USA). The primary parameters for analysis were maximum observed blood concentration (Cmax), time of Cmax (tmax), area under the blood concentration-time curve from time zero to the last measurable blood concentration (AUC0-tlast), and area under the blood concentration-time curve from time zero to infinity (AUC0-∞) of LY3023414. Other non-compartmental parameters, such as half-life (t1/2), apparent total body clearance (CL/F) on Cycle 1 Day 1, apparent total body clearance at steady state (CLss/F) on Cycle 1 Day 15, and apparent volume of distribution during the terminal phase (Vz/F), were also assessed.

[7] = set-up: method as in PMID 29636360; conditions: across a wide pH range; cited from earlier work
[8] = cited from earlier work
[9] = system: PI3K/AKT/mTOR downstream pathway; set-up: method as in PMID 27439478; conditions: in vitro; cited from earlier work
[10] = whole blood, 150 mg, 150 mg BID, Cycle 1 Day 1 (single dose), blood, N = 3, geometric mean (% CV)
[11] = whole blood, 150 mg, 150 mg BID, Cycle 1 Day 15 (multiple dose), blood, N = 3, geometric mean (% CV)
[12] = whole blood, 200 mg, 200 mg BID, Cycle 1 Day 1 (single dose), blood, N = 9, geometric mean (% CV)
[13] = whole blood, 200 mg, 200 mg BID, Cycle 1 Day 15 (multiple dose), blood, N = 7, geometric mean (% CV)

CO[C@@H](C)Cn1c(=O)n(C)c2cnc3ccc(-c4cncc(C(C)(C)O)c4)cc3c21 [LY3023414]
Best overall response of stable disease ([1]; 150 mg): 3 patients
Best overall response of stable disease ([1]; 200 mg): 2 patients
Progressive disease as best response ([1]; 200 mg BID): 4 patients
Disease control rate ([1]; 5 of 9 evaluable patients): 55.6%
Complete response (CR) or partial response (PR) ([1]; 9 evaluable patients, RECIST v1.1): No complete response (CR) or partial response (PR)
Best overall response of stable disease ([1]; both dose levels, 9 evaluable patients): 5 patients
Antitumor activity [2]: potent antitumor activity
C-peptide, mean percentage change from baseline ([3]; 150 mg): 106.0%
Glucose, mean percentage change from baseline ([3]; 150 mg): 23.6%
C-peptide, mean percentage change from baseline ([3]; 200 mg): 165.4%
Glucose, mean percentage change from baseline ([3]; 200 mg): 24.7%
Inhibition of the metabolic clearance of drugs metabolized through CYP3A4 [4]: weak inhibitor
Target inhibition [5]: ≥ 90%
CL/F ([6]; 150 mg BID, Cycle 1 Day 1 (single dose), N = 3, geometric mean (% CV)): 49.2 (19) L/hr
CL/F (CLss/F) ([6]; 150 mg BID, N = 3, geometric mean (% CV)): 30.4 (45) L/hr
CL/F ([6]; 200 mg BID, Cycle 1 Day 1 (single dose), N = 8, geometric mean (% CV 29)): 48.5^c (29) L/hr
CL/F (CLss/F) ([6]; 200 mg BID, N = 7, geometric mean (% CV)): 48.6 (33) L/hr
Tmax ([6]; whole blood (dried blood spot), 200 mg, post administration, each dose level (150 and 200 mg), read-out: median tmax): 1 to 3 h
half-life ([6]; whole blood (dried blood spot), Days 1 and 15 in Cycle 1, each dose level, read-out: geometric mean t1/2 (converted)): ~2 h
Vd/F ([6]; whole blood, 150 mg, 150 mg BID, Cycle 1 Day 1 (single dose), N = 3, geometric mean (% CV)): 113 L
AUC(0-inf) [6, 10]: 3050 ng·h/mL
Cmax [6, 10]: 792 ng/mL
half-life ([6]; whole blood, 150 mg, 150 mg BID, Cycle 1 Day 1 (single dose), blood, N = 3, geometric mean (range), read-out: t1/2 (converted)): 1.59 h
Tmax ([6]; whole blood, 150 mg, 150 mg BID, Cycle 1 Day 1 (single dose), blood, N = 3, median (range), read-out: tmax): 2.93 h
AUC(0-t) [6, 10]: 3000 ng·h/mL
Vd/F ([6]; whole blood, 150 mg, 150 mg BID, Cycle 1 Day 15 (multiple dose), N = 3, geometric mean (% CV)): 79.3 L
AUC(0-inf) [6, 11]: 5010 ng·h/mL
Cmax [6, 11]: 1570 ng/mL
half-life ([6]; whole blood, 150 mg, 150 mg BID, Cycle 1 Day 15 (multiple dose), blood, N = 3, geometric mean (range), read-out: t1/2 (converted)): 1.81 h
Tmax ([6]; whole blood, 150 mg, 150 mg BID, Cycle 1 Day 15 (multiple dose), blood, N = 3, median (range), read-out: tmax): 1 h
AUC(0-t) [6, 11]: 4920 ng·h/mL
Vd/F ([6]; whole blood, 200 mg, 200 mg BID, Cycle 1 Day 1 (single dose), N = 8, geometric mean (% CV 35)): 136 L
AUC(0-inf) ([6]; whole blood, 200 mg, 200 mg BID, Cycle 1 Day 1 (single dose), blood, N = 8, geometric mean (% CV 29)): 4120 ng·h/mL
half-life ([6]; whole blood, 200 mg, 200 mg BID, Cycle 1 Day 1 (single dose), blood, N = 8, geometric mean (range 1.52–3.15), read-out: t1/2 (converted)): 1.94 h
Cmax [6, 12]: 1020 ng/mL
Tmax ([6]; whole blood, 200 mg, 200 mg BID, Cycle 1 Day 1 (single dose), blood, N = 9, median (range), read-out: tmax): 1.95 h
AUC(0-t) [6, 12]: 4140 ng·h/mL
Vd/F ([6]; whole blood, 200 mg, 200 mg BID, Cycle 1 Day 15 (multiple dose), N = 7, geometric mean (% CV)): 129 L
AUC(0-inf) [6, 13]: 4210 ng·h/mL
Cmax [6, 13]: 1010 ng/mL
half-life ([6]; whole blood, 200 mg, 200 mg BID, Cycle 1 Day 15 (multiple dose), blood, N = 7, geometric mean (range), read-out: t1/2 (converted)): 1.83 h
Tmax ([6]; whole blood, 200 mg, 200 mg BID, Cycle 1 Day 15 (multiple dose), blood, N = 7, median (range), read-out: tmax): 1.97 h
AUC(0-t) [6, 13]: 4100 ng·h/mL
Solubility [7]: good solubility
Frequency of stomatitis ([8]; 200-mg dose, global study): 33.3%
Disease control rate ([8]; global Phase 1 study): 34.0%
Interstitial lung disease (ILD) ([8]; global study): None of the patients experienced ILD
Safe and tolerable dose as monotherapy (global recommended dose) ([8]; human, in vivo): up to 200 mg
Inhibition of phosphorylation of the PI3K/AKT/mTOR downstream pathway [9]: dose-dependent inhibition

Source: PMC7575488, “Phase 1 dose-escalation study of a novel oral PI3K/mTOR dual inhibitor, LY3023414, in patients with cancer” (Investigational New Drugs, 2020)
